PMC9693073, “Two Subgroups within the GH43_36 α-L-Arabinofuranosidase Subfamily Hydrolyze Arabinosyl from Either Mono-or Disubstituted Xylosyl Units in Wheat Arabinoxylan” (International Journal of Molecular Sciences, 2022)

Molecular target: T1, PoABF62 (Penicillium oxalicum, UniProt A0A2R4KZP3)
T1 construct: heterologously produced (fungal host), purified, supplied by Novozymes
Assay: HPAEC-PAD of hydrolysis products
Type: biochemical
Settings: 10 mM ammonium acetate pH 5.0, 40 °C, 24 h, 100 μg/mL substrate

T1 sequence (A0A2R4KZP3 31-331): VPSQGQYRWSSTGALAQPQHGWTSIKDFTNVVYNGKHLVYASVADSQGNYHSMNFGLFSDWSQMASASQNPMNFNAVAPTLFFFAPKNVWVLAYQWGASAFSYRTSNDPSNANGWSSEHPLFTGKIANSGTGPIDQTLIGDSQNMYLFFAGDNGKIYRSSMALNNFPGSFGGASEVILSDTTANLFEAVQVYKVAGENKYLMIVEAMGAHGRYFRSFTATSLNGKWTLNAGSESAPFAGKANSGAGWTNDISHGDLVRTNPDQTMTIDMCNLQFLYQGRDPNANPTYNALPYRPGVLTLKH

Compound	HPAEC-PAD of hydrolysis products (XA2XX/XA3XX mixture)	HPAEC-PAD of hydrolysis products
OC[C@@H]1O[C@@H](O[C@@H]2[C@@H](O)[C@H](O[C@@H]3CO[C@@H](O[C@@H]4COC(O)[C@H](O)[C@H]4O)[C@H](O)[C@H]3O)OC[C@H]2O[C@@H]2OC[C@@H](O)[C@H](O)[C@H]2O)[C@H](O)[C@H]1O (stereo partly drawn) [XA3XX, 3-α-L-arabinofuranosyl-xylotetraose]	PoABF62 and MgABF51 were highly active on all monosubstituted AXOS	–
OC[C@@H]1O[C@@H](O[C@H]2[C@H](O[C@@H]3CO[C@@H](O[C@@H]4COC(O)[C@H](O)[C@H]4O)[C@H](O)[C@H]3O)OC[C@@H](O)[C@@H]2O)[C@H](O)[C@H]1O (stereo partly drawn) [A2XX, 2-α-L-arabinofuranosyl-xylotriose]	–	PoABF62 and MgABF51 were highly active on all monosubstituted AXOS
